# Experimental data: US9540664B2, “Systems and methods for improving ethanol yield” (POET Research, Inc, priority 2011, dated 2017)
# Like-named read-outs stand apart in the source and are kept apart here.
# How the values were obtained:
# yeast [1] = tested on: yeast
# Procedure: The entire experiment was conducted in duplicate.
# In this experiment, corn that was ground using a hammer mill to >90% fines was obtained from a nearby biorefinery. […] The slurry (˜70 mL) was prepared by weighing out the appropriate amount of corn and water into each individual reactor. Lactoside247™ was added at 2.5 ppm to prevent any lactic acid bacterial contamination. Urea was added ˜0.24 g/L (4 mM) for a nitrogen source.
# A raw starch hydrolyzing enzyme blend was added at 0.2 g/L. Everything was added to the reactor in such a way that the final volume in the reactor was 70 mL. […] (88° F.). […] (82° F.). Samples were withdrawn at 0, 24, 48, 72, and 88 hr of fermentation and analyzed for sugars, glycerol, organic acids and ethanol using HPLC.
# About 4 mL of sample was withdrawn at each time point. These samples were centrifuged at 4500 rpm for 2 min. The supernatant was then filtered through a 0.2 μpore size filter into HPLC vials. […] An aliquot (5 μL) of the sample was injected by the auto-injector onto a reverse phase column (HPX-87H from BioRad Laboratories) maintained at 50° C. Aqueous sulfuric acid at 0.005M was used as the mobile phase (eluent). […] The components (sugars, organic acids, and ethanol) were identified and quantified using Waters Empower software.
# yeast [2] = settings: 24 hours at 88° F.
# Procedure: The samples were serially diluted and appropriate dilutions were plated on to Yeast extract-Malt extract (YM) agar plates. The plates were incubated at 30° C. and the colonies formed were counted after 48 h. The results were expressed as colony forming units (CFU) per mL.
# Samples tested include a control with no acetic acid addition, and samples treated at 1200 ppm and 2400 ppm respectively.
# yeast [3] = settings: 20% w/v sucrose
# Procedure: For this example, a laboratory media with sucrose was used. The media used was Yeast extract-Peptone (YP) broth supplemented with 20% w/v (200 g/L) sucrose. An acetic acid dose response (at 500, 1000, 1500, 2000, 2500, and 3000 ppm) was conducted. Control with no added acetic acid was also included. The fermenters were pH adjusted to 4.5 and after yeast inoculation the fermentations were carried out for 30 hours at 32° C. After 30 h, samples were withdrawn and analyzed for sugars, organic acids, and ethanol. Samples were also withdrawn at 24 h and yeast growth was monitored by optical density measurement at 600 nm.
# yeast [4] = settings: 320 gal per 720,000 gal or 250 gal per 550,000 gal fermentor, added 1.5 hours into fill, 36% dry solids
# Procedure: In commercial ethanol production facilities, acetic acid is thought to be inhibitory to yeast growth and fermentation. […] The dosage of acetic acid used is 320 gal per 720,000 gal fermentor or 250 gal per 550,000 gal fermentor and the acetic acid is added at 1.5 hours into fill of the fermentor (which would be about 1 hour after yeast inoculation from the yeast conditioning tank). […] A few batches were conducted with added acetic acid (primed) and a few batches were operated normally without additional acetic acid.
smiles,measurement,setting,value
CC(=O)O [acetic acid],effect on ethanol titers,"yeast [1]; 0.12% to 0.24% (1200-2400 ppm) acetic acid, initial pH 4.7 or 5.2",increased ethanol titers
same,effect on ethanol production,"yeast [1]; highest concentration tested 0.37% w/v, especially at pH 4.2",inhibitory effect
same,effect on ethanol production,yeast [1]; initial pH 4.2,No major benefits
same,maximum reduction in glycerol,"yeast [1]; initial pH 4.7, initial acetic acid 0.24% w/v",over 50%
same,highest ethanol titer,"yeast [1]; initial pH 4.7, initial acetic acid 0.24% w/v, 36% dry solids, 88 hr fermentation",20.5 % v/v
same,reduction in cell counts,yeast [2]; initial acetic acid 1200 ppm,About 24%
same,reduction in cell counts,yeast [2]; initial acetic acid 2400 ppm,~32%
same,effect on ethanol conversion efficiency,"yeast [3]; above 2500 ppm acetic acid, pH 4.5",inhibitory to fermentation
same,effect on ethanol conversion efficiency,"yeast [3]; initial acetic acid between 2000 and 2500 ppm, pH 4.5, 30 hours at 32° C",stimulatory effect
same,"ethanol production, primed vs no priming",yeast [4],increased ethanol production
same,"glycerol production, primed vs no priming",yeast [4],decreases glycerol production significantly
